Reference: US20240083892A1 (BISICHEM CO., LTD., priority 2021, published 2024)

How the values were obtained:
RIPK1 [1] = molecular target: T1, RIPK1 (Homo sapiens, UniProt Q13546); assay: Cell-based necroptosis assay for RIPK1 activity (cell viability by CCK-8); conditions: HT-29 cells; Z-VAD-FMK 20 μM, human TNFα 10 ng/ml, SM-164 100 nM; 24 h; read-out: Cell-base RIPK1 activity: Necroptosis
T1 construct: endogenous in cells; host or cells: HT-29 (KCLB 30038)
T1 sequence (Q13546 1-671): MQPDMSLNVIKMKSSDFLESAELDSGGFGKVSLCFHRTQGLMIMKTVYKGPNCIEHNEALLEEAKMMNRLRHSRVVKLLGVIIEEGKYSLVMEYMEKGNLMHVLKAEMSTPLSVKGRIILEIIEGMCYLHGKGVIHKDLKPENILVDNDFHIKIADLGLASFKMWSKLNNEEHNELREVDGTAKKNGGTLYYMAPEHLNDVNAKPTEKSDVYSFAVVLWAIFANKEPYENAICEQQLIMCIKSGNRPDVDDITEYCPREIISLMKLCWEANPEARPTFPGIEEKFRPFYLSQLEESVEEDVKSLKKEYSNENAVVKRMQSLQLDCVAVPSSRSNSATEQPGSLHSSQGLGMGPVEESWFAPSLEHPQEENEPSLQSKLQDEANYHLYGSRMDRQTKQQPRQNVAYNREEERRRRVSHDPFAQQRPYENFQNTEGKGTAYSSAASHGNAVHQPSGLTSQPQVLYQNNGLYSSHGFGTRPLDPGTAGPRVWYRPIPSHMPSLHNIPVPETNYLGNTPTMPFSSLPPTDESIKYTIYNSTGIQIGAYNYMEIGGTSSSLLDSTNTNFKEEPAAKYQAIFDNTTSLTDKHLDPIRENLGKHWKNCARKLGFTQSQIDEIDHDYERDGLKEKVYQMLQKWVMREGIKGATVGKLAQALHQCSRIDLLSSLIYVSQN
Protocol: (§1) Human colon carcinoma cell HT-29 (KCLB 30038), BV2 mouse microglial cell (cell was a kind gift from Dr. Nak-Yun Sung, Senior researcher at Korea Prime Pharmacy CO., LTD.) and human microglial cell HMC3 (ATCC® CRL-3304™). HT-29 cell was grown in Roswell Park Memorial Institute (RPMI) 1640, BV2 cell was grown in Dulbecco's Modified Eagle's Medium (DMEM) and HMC3 cell was grown in Minimum Essential Media Eagle (MEM) supplemented with 10% fetal bovine serum and 1% mixture of penicillin and streptomycin (Gibco). Cells were maintained at 37° C. in a humidified 5% CO2 atmosphere.
To measure the activity of RIPK1 inhibitor in necroptotic cells, HT-29 cells were treated by control DMSO, human TNFα (Peprotech, Rocky Hill, USA), SM-164 (Biovision, California, USA) and a pan-caspase inhibitor Z-VAD-FMK (Invivogen, San Diego, USA). Cells were pretreated with Z-VAD-FMK 20 μM. After 30 min, human TNFα 10 ng/ml, SM-164 100 nM and RIPK1 Inhibitor (0.0001, 0.001, 0.01, 0.02, 0.05, 0.1, 1, 10 uM) were treated for 24 h. Cell viability was measured by Cell Counting Kit 8 (CCK-8) (Dong-in, Seoul, Korea).

RIPK1 [2] = molecular target: T1, RIPK1; assay: Immunoblotting of TNFα induced phospho-RIPK1 (ser 166) levels; assay type: cell-based; conditions: HMC3 cells; Z-VAD-FMK, human TNFα 20 ng/ml, SM-164 100 nM; 7 h, serum free media; read-out: Cell-base RIPK1 activity: phspho-RIPK1 (Ser166)
Protocol: as §1
Biological activity of the compounds of RIPK1 inhibitor was determined by measuring their ability to inhibitor TNFα induced phospho-RIPK1 (ser 166) levels, phospho-RIPK3 levels, phospho-MLKL levels in HMC3 cells. Cells were pretreated with Z-VAD-FMK […]. After 30 min, human TNFα 20 ng/ml, SM-164 100 nM and RIPK1 inhibitor (0.1, 1, 10 nM) were treated for 7 h under serum free media. Cells were lysed with cold lysis buffer containing 25 mM HEPES pH 7.6, […] NaCl, 1% NP40, 1% sodium deoxycholate, 0.1% SDS, and protease inhibitor mixture (Bimake, Houston, USA) using sonicators. The cells were centrifuged at 15,000 rpm, 4° C. for 5 min. After protein concentration of the lysates (supernatants) was quantified using BCA assay (Thermo Fisher Scientific, Waltham, USA), lysates were mixed with LDS sample buffer and heating at […] for 10 min. (Invitrogen, California, USA). […] The membranes are placed in an image analyzer (Imagequant, LAS 500, GE Healthcare), connected to a computer which allows the image generation (software Image reader LAS 500).

Row | SMILES | IC50 (RIPK1 [2]) | IC50 (RIPK1 [1])
1 | CN1C(=O)[C@@H](NC(=O)n2cc(Cc3cccc(F)c3)cn2)COc2ccc(OCC(=O)NCC(C)(C)O)cc21 [Example 52, (S)-4-(3-fluorobenzyl)-N-(7-(2-((2-hydroxy-2-methylpropyl)amino)-2-oxoethoxy)-5-methyl-4-oxo-2,3,4,5-tetrahydrobenzo[b][1,4]oxazepin-3-yl)-1H-pyrazole-1-carboxamide] | – | < 10 nM
2 | CC(C)CCCOc1ccc2c(c1)N(C)C(=O)[C@@H](NC(=O)n1cc(Cc3cccc(F)c3)cn1)CO2 [Example 15, (S)-4-(3-fluorobenzyl)-N-(5-methyl-7-((4-methylpentyl)oxy)-4-oxo-2,3,4,5-tetrahydrobenzo[b][1,4]oxazepin-3-yl)-1H-pyrazole-1-carboxamide] | < 10 nM | < 10 nM
3 | CN1C(=O)[C@@H](NC(=O)n2cc(Cc3cccc(F)c3)cn2)COc2ccc(C(=O)N3CC4(COC4)C3)cc21 [Example 14, (S)-4-(3-fluorobenzyl)-N-(5-methyl-4-oxo-7-(2-oxa-6-azaspiro[3.3]heptane-6-carbonyl)-2,3,4,5-tetrahydrobenzo[b][1,4]oxazepin-3-yl)-1H-pyrazole-1-carboxamide] | 10 to 50 nM | 10 to 50 nM
4 | CN1C(=O)[C@@H](NC(=O)n2cc(Cc3cccc(F)c3)cn2)COc2ccc(C(=O)N3CCOCC3)cc21 [Example 9, (S)-4-(3-fluorobenzyl)-N-(5-methyl-7-(morpholine-4-carbonyl)-4-oxo-2,3,4,5-tetrahydrobenzo[b][1,4]oxazepin-3-yl)-1H-pyrazole-1-carboxamide] | – | 10 to 50 nM
5 | CN1C(=O)[C@@H](NC(=O)n2cc(Cc3cccc(F)c3)cn2)COc2ccc(OCC#CC(C)(C)O)cc21 [Example 22, (S)-4-(3-fluorobenzyl)-N-(7-((4-hydroxy-4-methylpent-2-yn-1-yl)oxy)-5-methyl-4-oxo-2,3,4,5-tetrahydrobenzo[b][1,4]oxazepin-3-yl)-1H-pyrazole-1-carboxamide] | < 10 nM | < 10 nM
6 | CN1CC[C@@H](Oc2ccc3c(c2)N(C)C(=O)[C@@H](NC(=O)n2cc(Cc4cccc(F)c4)cn2)CO3)C1 [Example 33, 4-(3-fluorobenzyl)-N—((S)-5-methyl-7-(((R)-1-methylpyrrolidin-3-yl)oxy)-4-oxo-2,3,4,5-tetrahydrobenzo[b][1,4]oxazepin-3-yl)-1H-pyrazole-1-carboxamide] | – | 10 to 50 nM
7 | CN1C(=O)[C@@H](NC(=O)n2cc(Cc3cccc(F)c3)cn2)COc2ccc(C(=O)N3CCC(O)C3)cc21 (stereo partly drawn) [Example 10, 4-(3-fluorobenzyl)-N-((3S)-7-(3-hydroxypyrrolidine-1-carbonyl)-5-methyl-4-oxo-2,3,4,5-tetrahydrobenzo[b][1,4]oxazepin-3-yl)-1H-pyrazole-1-carboxamide] | – | < 10 nM
8 | CN1C(=O)[C@@H](NC(=O)n2cc(Cc3cccc(F)c3)cn2)COc2ccc(C(=O)N3CCNCC3)cc21 [Example 8, (S)-4-(3-fluorobenzyl)-N-(5-methyl-4-oxo-7-(piperazine-1-carbonyl)-2,3,4,5-tetrahydrobenzo[b][1,4]oxazepin-3-yl)-1H-pyrazole-1-carboxamide] | – | > 50 nM
9 | CN(C)CCOc1ccc2c(c1)N(C)C(=O)[C@@H](NC(=O)n1cc(Cc3cccc(F)c3)cn1)CO2 [Example 17, (S)—N-(7-(2-(dimethylamino)ethoxy)-5-methyl-4-oxo-2,3,4,5-tetrahydrobenzo[b][1,4]oxazepin-3-yl)-4-(3-fluorobenzyl)-1H-pyrazole-1-carboxamide] | – | 10 to 50 nM
10 | CN1C(=O)[C@@H](NC(=O)n2cc(Cc3cccc(F)c3)cn2)COc2ccc(O[C@@H]3CCOC3)cc21 [Example 32, 4-(3-fluorobenzyl)-N—((S)-5-methyl-4-oxo-7-(((R)-tetrahydrofuran-3-yl)oxy)-2,3,4,5-tetrahydrobenzo[b][1,4]oxazepin-3-yl)-1H-pyrazole-1-carboxamide] | – | < 10 nM
11 | CN1CCN(C(=O)c2ccc3c(c2)N(C)C(=O)[C@@H](NC(=O)n2cc(Cc4cccc(F)c4)cn2)CO3)CC1 [Example 7, (S)-4-(3-fluorobenzyl)-N-(5-methyl-7-(4-methylpiperazine-1-carbonyl)-4-oxo-2,3,4,5-tetrahydrobenzo[b][1,4]oxazepin-3-yl)-1H-pyrazole-1-carboxamide] | – | 10 to 50 nM
12 | CN1C(=O)[C@@H](NC(=O)n2cc(Cc3cccc(F)c3)cn2)COc2ccc(C(=O)NOCC(C)(C)O)cc21 [Example 13, (S)-3-(4-(3-fluorobenzyl)-1H-pyrazole-1-carboxamido)-N-(2-hydroxy-2-methylpropoxy)-5-methyl-4-oxo-2,3,4,5-tetrahydrobenzo[b][1,4]oxazepine-7-carboxamide] | – | 10 to 50 nM

Now from value to compound, other results behind:

Row | IC50 (RIPK1 [2]) | SMILES | IC50 (RIPK1 [1])
13 | < 10 nM | CN1C(=O)[C@@H](NC(=O)n2cc(Cc3cccc(F)c3)cn2)COc2ccc(OCCCc3cccnc3)cc21 [Example 29, (S)-4-(3-fluorobenzyl)-N-(5-methyl-4-oxo-7-(3-(pyridin-3-yl)propoxy)-2,3,4,5-tetrahydrobenzo[b][1,4]oxazepin-3-yl)-1H-pyrazole-1-carboxamide] | < 10 nM
14 | 10 to 50 nM | CN1C(=O)[C@@H](NC(=O)n2cc(Cc3cccc(F)c3)cn2)COc2ccc(OC(C)(C)C(=O)N3CCC(C)(O)CC3)cc21 [Example 42, (S)-4-(3-fluorobenzyl)-N-(7-((1-(4-hydroxy-4-methylpiperidin-1-yl)-2-methyl-1-oxopropan-2-yl)oxy)-5-methyl-4-oxo-2,3,4,5-tetrahydrobenzo[b][1,4]oxazepin-3-yl)-1H-pyrazole-1-carboxamide] | 10 to 50 nM
15 | < 10 nM | CN1C(=O)[C@@H](NC(=O)n2cc(Cc3cccc(F)c3)cn2)COc2ccc(OCc3ccc(F)nc3)cc21 [Example 59, (S)-4-(3-fluorobenzyl)-N-(7-((6-fluoropyridin-3-yl)methoxy)-5-methyl-4-oxo-2,3,4,5-tetrahydrobenzo[b][1,4]oxazepin-3-yl)-1H-pyrazole-1-carboxamide] | < 10 nM
16 | < 10 nM | CN1C(=O)[C@@H](NC(=O)n2cc(Cc3cccc(F)c3)cn2)COc2ccc(OCCCC3(O)CCC3)cc21 [Example 28, (S)-4-(3-fluorobenzyl)-N-(7-(3-(1-hydroxycyclobutyl)propoxy)-5-methyl-4-oxo-2,3,4,5-tetrahydrobenzo[b][1,4]oxazepin-3-yl)-1H-pyrazole-1-carboxamide] | < 10 nM
17 | < 10 nM | CN1C(=O)[C@@H](NC(=O)n2cc(Cc3cccc(F)c3)cn2)COc2ccc(OCc3cn(CC(C)(C)O)nn3)cc21 [Example 68, (S)-4-(3-fluorobenzyl)-N-(7-((1-(2-hydroxy-2-methylpropyl)-1H-1,2,3-triazol-4-yl)methoxy)-5-methyl-4-oxo-2,3,4,5-tetrahydrobenzo[b][1,4]oxazepin-3-yl)-1H-pyrazole-1-carboxamide] | < 10 nM
18 | < 10 nM | CN1C(=O)[C@@H](NC(=O)n2cc(Cc3cccc(F)c3)cn2)COc2ccc(OCC(O)c3ccncc3)cc21 (stereo partly drawn) [Example 71, 4-(3-fluorobenzyl)-N-((3S)-7-(2-hydroxy-2-(pyridin-4-yl)ethoxy)-5-methyl-4-oxo-2,3,4,5-tetrahydrobenzo[b][1,4]oxazepin-3-yl)-1H-pyrazole-1-carboxamide] | < 10 nM
